{"source": "patent US12161752B2", "about": "“Compositions and methods for the treatment of anterior blepharitis and posterior blepharitis” (priority 2019, dated 2024)", "key": {"[1]": {"conditions": "oral, cited from earlier work"}, "[2]": {"assay": "Clinic based application of topical Ivermectin for the treatment of inflammatory blepharitis", "assay_type": "in vivo", "method": "In another embodiment, the pharmaceutical composition is administered periodically. In an embodiment, the pharmaceutical composition is applied daily for 3 days and the treatment is repeated for 3 days again after 2 weeks. In most cases this is sufficient for a significant therapeutic effect. The treatment using this frequency can be repeated again if the condition recurs but this is necessary only in a relatively small number of cases. The intermittent dosage of the Ivermectin provides the benefit of a lower amount of Ivermectin use and thereby lowers the possibility of adverse effects.\nIn another embodiment, a subject with anterior and posterior blepharitis is identified and the existing symptoms and signs noted. The pharmaceutical composition is applied by the practitioner using for example, slit lamp magnification to accurately identify the areas on the eyelid margin where the pharmaceutical composition is to be applied. A topical anaesthetic drop is applied in the lower conjunctival sac of the eye 5 to 10 minutes prior. Temporary anaesthetization will attenuate the lacrimal reflex thereby minimizing the production of tear fluid during the application process.\nThe pharmaceutical composition is applied as a film precisely along the length of the lid margin with the applicator just covering the openings of the Meibomian glands but taking care as to not further extend the composition into the mucosal surface. The pharmaceutical composition is extended proximally to cover the lash roots and the skin area in between. The lid is held reflected away from the eyeball until the pharmaceutical composition sets and dries in place. The pharmaceutical composition takes the form of an adhesive film or coating on the lid margin. This procedure is repeated for all the 4 eyelid margins. The administration of the pharmaceutical composition results in enhanced meibum production.\nA clinic based application of topical Ivermectin for the treatment of inflammatory blepharitis has been successful; both for cases where Demodex species were not isolated which constituted the majority of cases of Blepharitis treated, and the smaller number of cases where Demodex species were isolated. Most of these were cases with longstanding disease which had been unresponsive to a wide range of currently accepted treatment modalities. More than 95% had full relief of symptoms and a remarkable reduction in signs of inflammation of the lid margins. 87% of the cases required only 1 treatment cycle for marked improvement or complete remission of symptoms."}}, "data": [{"substance": "mixture containing 5-O-demethyl-22,23-dihydroavermectin A1a and 5-O-demethyl-25-de(1-methylpropyl)-25-(1-methylethyl)-22,23 dihydroavermectin A1a [Ivermectin]", "values": [{"measurement": "adverse effect at high doses", "setting": "[1]; high doses", "value": "paralysis"}, {"measurement": "safety profile", "setting": "[1]", "value": "good safety profile"}, {"measurement": "cases that required only 1 treatment cycle for marked improvement or complete remission of symptoms", "setting": "[2]; topical application to lid margins", "value": 87, "unit": "%"}, {"measurement": "cases with full relief of symptoms and a remarkable reduction in signs of inflammation of the lid margins", "setting": "[2]; topical application to lid margins, cases with and without Demodex isolated, mostly longstanding disease unresponsive to accepted treatments", "value": "More than 95%"}, {"measurement": "Meibomian gland orifices and secretions after treatment", "setting": "[2]; topical application, a significant number of cases", "value": "re-opening of previously closed Meibomian gland orifices"}, {"measurement": "overall outcome of treatment of inflammatory blepharitis", "setting": "[2]; topical application, cases with and without Demodex species isolated", "value": "successful"}, {"measurement": "dry eye symptoms after treatment", "setting": "[2]; topical application, majority of the cases where dry eye symptoms were present", "value": "remarkable improvement"}]}]}
